The text below walks through data of patent publication US12637468B2, “Substituted [1,2,4]triazolo[4,3-b]pyridazines as GABAA receptor modulators” (SHANGHAI SIMR BIOTECHNOLOGY CO., LTD., priority 2019, dated 2026).

What is called thermodynamic solubility is solubility found after equilibrating the solid with the medium.

Series [1] has as its target T1, α5-GABAA receptor (Homo sapiens, UniProt P18507+P31644).
T1 construct: expressed in transfected cells; host or cells: HEK293, monoclonal stably transfected line
Description: Cell-level screening: whole cell patch clamp, inverse agonist efficacy on α5-GABAA receptor expressed in HEK293. The series is classed as cell-based. Particulars: drug 100 nM, GABA 0.05 μM, HEK293 expressing α5, β3 and γ2 subunits, clamped at −60 mV; read-out: Compound inverse agonist efficacy %. The procedure, abridged: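 Whole-cell patch clamp at −60 mV on HEK293 stably expressing α5β3γ2, pH 7.4 extracellular/CsCl internal solutions. Current evoked by 0.05 μM GABA, then compound in GABA solution; screening at 100 nM, dose-response 0.3–300 nM. Inverse agonist efficacy as % change of GABA current.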

Series [2] can be described thus: Thermodynamic solubility in simulated intestinal fluid (TS in FaSSIF). In kind it is physicochemical. Particulars: thermodynamic from solid, 37° C. The procedure, abridged: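 About 0.3 mg solid shaken in 1.5 mL FaSSIF-V2 at 1000 rpm, 37° C, 4 hours, in duplicate, then filtered. Filtrate quantified by HPLC-UV against 1 μM-200 μM standards diluted from 10 mM DMSO stock.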

The nature of series [3]: Water solubility observed on extraction work-up. The conditions noted are these: observed on extraction with ethyl acetate at pH=7. In kind it is physicochemical. As for the experimental part:
Methyl 6-[7-methoxy-3-(5-methyl-isoxazol-3-yl)-[1,2,4]triazolo[4,3-b]pyridazin-6-yloxymethyl]-nicotinate (300 mg, 0.75 mmol), 1M lithium hydroxide (1.5 mL, 1.5 mmol) were sequentially added to 10 mL of ethanol, and the mixture was stirred at room temperature for 1 hour. The mixture was added with 0.5 M hydrochloric acid to neutralize to pH=7, diluted with water, extracted with ethyl acetate. […] LC-MS: m/z [M+H]^+=383.

The test system of series [4] is α5-GABAA receptor. Particulars: in vivo; cited from earlier work.
For series [5], the system named is α5-GABAA receptor. The conditions noted are these: in vivo; cited from earlier work. The source holds these as a separate data set.

The structures appear in SMILES notation. Values after ≈ are worked out from the molar mass of the structure shown.

T1 sequence (P31644 32-462): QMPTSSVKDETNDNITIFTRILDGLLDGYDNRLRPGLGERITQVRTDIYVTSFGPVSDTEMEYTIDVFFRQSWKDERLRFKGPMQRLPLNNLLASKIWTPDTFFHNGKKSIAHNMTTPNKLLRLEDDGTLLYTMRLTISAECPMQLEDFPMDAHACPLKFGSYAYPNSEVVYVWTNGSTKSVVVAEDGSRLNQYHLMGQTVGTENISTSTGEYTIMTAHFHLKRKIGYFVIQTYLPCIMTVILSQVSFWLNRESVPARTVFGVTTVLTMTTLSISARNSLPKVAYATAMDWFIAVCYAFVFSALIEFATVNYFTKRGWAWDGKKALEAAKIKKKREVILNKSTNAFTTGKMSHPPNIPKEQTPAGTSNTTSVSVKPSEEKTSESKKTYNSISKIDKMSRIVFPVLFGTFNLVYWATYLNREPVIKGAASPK
T1 sequence (P28472 26-473 partner): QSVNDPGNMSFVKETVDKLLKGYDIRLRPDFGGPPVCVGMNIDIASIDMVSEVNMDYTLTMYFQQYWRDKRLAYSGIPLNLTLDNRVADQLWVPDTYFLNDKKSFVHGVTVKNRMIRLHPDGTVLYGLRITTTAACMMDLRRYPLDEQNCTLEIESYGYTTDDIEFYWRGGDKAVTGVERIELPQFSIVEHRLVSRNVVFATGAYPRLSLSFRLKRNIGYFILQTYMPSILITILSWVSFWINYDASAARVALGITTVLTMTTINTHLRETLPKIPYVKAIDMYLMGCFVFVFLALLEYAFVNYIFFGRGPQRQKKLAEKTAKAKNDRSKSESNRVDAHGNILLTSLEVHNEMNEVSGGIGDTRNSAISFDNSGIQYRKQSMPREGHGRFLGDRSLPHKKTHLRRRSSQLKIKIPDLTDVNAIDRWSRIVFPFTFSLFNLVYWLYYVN
T1 sequence (P18507 40-467 isoform P18507-1 limits assumed): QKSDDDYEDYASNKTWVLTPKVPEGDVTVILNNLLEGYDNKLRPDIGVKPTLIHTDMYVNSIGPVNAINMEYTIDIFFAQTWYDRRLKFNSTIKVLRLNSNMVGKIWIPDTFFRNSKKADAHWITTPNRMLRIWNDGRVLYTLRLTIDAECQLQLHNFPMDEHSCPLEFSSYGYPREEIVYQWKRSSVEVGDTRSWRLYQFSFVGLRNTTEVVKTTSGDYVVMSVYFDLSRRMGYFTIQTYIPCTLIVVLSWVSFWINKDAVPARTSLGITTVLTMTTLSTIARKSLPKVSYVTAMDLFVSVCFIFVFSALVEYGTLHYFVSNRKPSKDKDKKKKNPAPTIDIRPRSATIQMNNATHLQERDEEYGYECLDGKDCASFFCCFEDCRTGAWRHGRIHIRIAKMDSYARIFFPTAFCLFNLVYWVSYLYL

For the compound `COc1cc2nnc(-c3cc(C)on3)n2nc1OCc1ccc(C(=O)O)cn1` [Embodiment 63, 6-(((7-Methoxy-3-(5-methylisoxazol-3-yl)-[1,2,4]triazolo[4,3-b]pyridazin-6-yl)oxy)methyl)nicotinate], the inhibition at 0.1 µM on α5-GABAA receptor [1] worked out at 24.2%. In addition, the solubility (thermodynamic) at 4 h in series [2] is 0.307 mg/mL (≈ 803 µM). Further, the water solubility entry in series [3] is “good water solubility”. With `Cn1ncnc1COc1nn2c(-c3cc(CO)on3)nncc2c1C(C)(C)C` [MRK016-M3], the “inhibition of (3H)RO-15-1788 binding in the central nervous system” value in the series on α5-GABAA receptor [4] is given as “hardly inhibit”.

For the compound `Cc1cc(-c2nncc3c(C(C)(C)C)c(OCc4ncnn4C)nn23)no1` [MRK-016], the “inhibition of (3H)RO-15-1788 binding in the central nervous system” value in the series on α5-GABAA receptor [4] is on record as “effectively inhibit”. In addition, the “therapeutic effects on the treatment of cognition related diseases in animal models” value in the series on α5-GABAA receptor [5] is on record as “good therapeutic effects”. `Cc1cc(-c2nnc3c4ccccc4c(OCc4cn(C)nn4)nn23)no1` [α5IA]: the “therapeutic effects on the treatment of cognition related diseases in animal models” value with α5-GABAA receptor [5] is reported as “good therapeutic effects”.
